Results on 18 compounds are retold here after patent US10214512B2, “Factor XIA inhibitors” (MERCK SHARP & DOHME CORP., priority 2015, dated 2019).

Assay [1] deals with purified human Factor XIa (Homo sapiens (Human), UniProt P03951). The assay can be described thus: Factor XIa Assay. In kind it is biochemical. The note with it: purified human Factor XIa 40 pM; substrate Z-Gly-Pro-Arg-AFC 100 μM; 50 mM HEPES pH 7.4; read-out: Human FXIa Ki. In short, it runs like this:
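Ki obtained from the dependence of uninhibited/inhibited initial-velocity ratio on inhibitor concentration, under a competitive-inhibition model. Reactions used 100 μM Z-Gly-Pro-Arg-AFC and 40 pM final human Factor XIa in pH 7.4 HEPES buffer with NaCl, CaCl2 and PEG 8000; run at rt or 37° C following pre-equilibration.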

The target of assay [2] is purified Human plasma Kallikrein (Homo sapiens (Human), UniProt P03952). Briefly: Kallikrein Assay. The note with it: purified Human plasma Kallikrein 0.5 nM; substrate Acetyl-K-P-R-AFC; 50 mM HEPES pH 7.4; Ki from IC50 by Cheng Prusoff. In kind it is biochemical. In short, it runs like this: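 Purified human plasma kallikrein (0.5 nM) with fluorogenic Ac-K-P-R-AFC ([…]) in 50 mM HEPES pH 7.4, 150 mM NaCl, 5 mM CaCl2, 0.1% PEG 8000, at rt or 37 °C. Substrate hydrolysis rate read with and without inhibitor; IC50 from four-parameter logistic fit, converted to Ki by Cheng–Prusoff.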
purified Human plasma Kallikrein, sequence (P03952 391-638): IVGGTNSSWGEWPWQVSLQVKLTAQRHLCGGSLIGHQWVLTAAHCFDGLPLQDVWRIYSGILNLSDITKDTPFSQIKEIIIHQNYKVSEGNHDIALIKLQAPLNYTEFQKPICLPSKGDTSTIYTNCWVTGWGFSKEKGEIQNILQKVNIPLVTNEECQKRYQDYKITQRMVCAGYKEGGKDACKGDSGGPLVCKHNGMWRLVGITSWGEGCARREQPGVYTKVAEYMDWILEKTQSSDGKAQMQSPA
purified Human plasma Kallikrein, sequence (P03952 20-390 partner): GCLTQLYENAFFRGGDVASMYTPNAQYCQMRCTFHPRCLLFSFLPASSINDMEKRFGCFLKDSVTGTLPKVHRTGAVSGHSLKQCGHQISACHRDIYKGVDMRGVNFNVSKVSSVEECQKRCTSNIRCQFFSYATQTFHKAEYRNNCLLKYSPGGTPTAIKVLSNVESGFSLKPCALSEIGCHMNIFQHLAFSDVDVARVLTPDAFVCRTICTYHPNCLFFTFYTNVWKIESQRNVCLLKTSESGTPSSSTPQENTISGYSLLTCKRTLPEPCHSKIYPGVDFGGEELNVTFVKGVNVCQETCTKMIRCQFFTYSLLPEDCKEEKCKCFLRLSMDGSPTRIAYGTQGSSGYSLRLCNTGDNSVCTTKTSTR

purified human Factor XIa, sequence (P03951 388-625): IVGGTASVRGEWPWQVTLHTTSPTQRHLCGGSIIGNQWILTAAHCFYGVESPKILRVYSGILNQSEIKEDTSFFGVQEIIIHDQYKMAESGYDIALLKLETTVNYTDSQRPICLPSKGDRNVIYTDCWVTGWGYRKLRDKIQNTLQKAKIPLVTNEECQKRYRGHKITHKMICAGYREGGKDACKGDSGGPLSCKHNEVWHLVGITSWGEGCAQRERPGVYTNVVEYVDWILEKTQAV
purified human Factor XIa, sequence (P03951 19-387 partner): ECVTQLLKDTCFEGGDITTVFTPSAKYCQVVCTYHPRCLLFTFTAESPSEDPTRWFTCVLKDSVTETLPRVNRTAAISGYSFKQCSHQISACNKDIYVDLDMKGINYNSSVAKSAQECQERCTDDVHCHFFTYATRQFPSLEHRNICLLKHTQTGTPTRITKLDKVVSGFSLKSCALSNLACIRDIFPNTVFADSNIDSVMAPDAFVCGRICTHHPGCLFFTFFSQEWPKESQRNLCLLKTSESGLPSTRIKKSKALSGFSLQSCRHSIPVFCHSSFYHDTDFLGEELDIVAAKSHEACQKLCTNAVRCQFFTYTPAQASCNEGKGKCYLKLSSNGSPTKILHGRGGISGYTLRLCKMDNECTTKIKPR

On to `COC(=O)Nc1ccc2c(c1)NC(=O)CCCCC(c1ccc(-c3cc(Cl)ccc3-n3cnnn3)c[n+]1[O-])c1nc-2c[nH]1` (single isomer, unassigned) [Example 98-a, (Z)-5-(5-chloro-2-(1H-tetrazol-1-yl)phenyl)-2-(2^4-((methoxycarbonyl)amino)-4-oxo-1^1H-3-aza-1(4,2)-imidazola-2(1,2) -benzenacyclononaphane-9-yl)pyridine 1-oxide], for which the Ki in assay [1] is 0.51 nM; in assay [2] it was 0.49 nM.

In the case of `COC(=O)Nc1ccc2c(c1)NC(=O)CCCCC(c1ccc(-c3cc(Cl)ccc3OC(F)(F)F)c[n+]1[O-])c1nc-2c[nH]1` (single isomer, unassigned) [Example 99-a, (Z)-5-(5-chloro-2-(trifluoromethoxy)phenyl)-2-(2^4-((methoxycarbonyl)amino)-4-oxo-1^1H-3-aza-1(4,2)-imidazola-2(1,2) -benzenacyclononaphane-9-yl)pyridine 1-oxide], the Ki in assay [1] was determined as 0.17 nM; in assay [2], 1.21 nM.

On to `COC(=O)Nc1ccc2c(c1)NC(=O)CCCCC(c1ccc(-c3c(F)cccc3OC(F)F)c[n+]1[O-])c1nc-2c(C2CC2)[nH]1` (single isomer, unassigned) [Example 113-a, (Z)-2-(1^5-cyclopropyl-2^4-((methoxycarbonyl)amino)-4-oxo-1^1H-3-aza-1(4,2)-imidazola-2(1,2)-benzenacyclononaphane-9-yl)-5-(2-(difluoromethoxy)-6-fluorophenyl)pyridine 1-oxide], for which the values for the inhibition constant Ki in assay [1] and in assay [2] were 0.21 nM and 1.87 nM, respectively.

For the compound `O=C1CCCCC(c2ccc(-c3cc(Cl)cc(F)c3-n3cnnn3)c[n+]2[O-])c2cccc(c2)-c2cc(F)ccc2N1` (single isomer, unassigned) [Example 7-a, 5-(5-chloro-3-fluoro-2-(1H-tetrazol-1-yl)phenyl)-2-(2^5-fluoro-4-oxo-3-aza-1(1,3),2(1,2)-dibenzenacyclononaphane-9-yl)pyridine 1-oxide], the Ki in assay [1] amounted to 2.4 nM; in assay [2], 238 nM.

For `COC(=O)Nc1ccc2c(c1)NC(=O)CCCCC(c1ccc(-c3c(F)ccc(Cl)c3F)c[n+]1[O-])c1cccc-2c1` (single isomer, unassigned) [Example 13-a, 5-(3-Chloro-2,6-difluorophenyl)-2-(2^4-((methoxycarbonyl)amino)-4-oxo-3-aza-1(1,3),2(1,2)-dibenzenacyclononaphane-9-yl)pyridine 1-oxide], the figures for the Ki in assay [1] and in assay [2] were 0.36 nM and 1.55 nM, respectively.

Consider `COC(=O)Nc1ccc2c(c1)NC(=O)CCCCC(c1ccc(-c3c(F)ccc(Cl)c3F)c[n+]1[O-])c1nc-2c[nH]1` (single isomer, unassigned) [Example 96-a, (Z)-5-(3-chloro-2,6-difluorophenyl)-2-(2^4-((methoxycarbonyl)amino)-4-oxo-1^1H-3-aza-1(4,2)-imidazola-2(1,2)-benzenacyclononaphane-9-yl)pyridine 1-oxide], for which the results for the inhibition constant (Ki) in assay [1] and in assay [2] were 0.53 nM and 0.6 nM, respectively.

Consider `O=C1CCCCC(c2ccc(-c3cc(Cl)ccc3-n3cnnn3)cn2)c2ccnc(c2)-c2cc(F)ccc2N1` (stereo not drawn) [Example 56, 9-(5-(5-chloro-2-(1h-tetrazol-1-yl)phenyl)pyridin-2-yl)-25-fluoro-3-aza-1(2,4)-pyridina-2(1,2)-benzenacyclononaphan-4-one], for which the figures for the Ki in assay [1] and in assay [2] were 14.1 nM and 149 nM, respectively.

Take `CCc1[nH]c2nc1-c1ccc(NC(=O)OC)cc1NC(=O)CCCC[C@@H]2c1ccc(-c2cc(F)ccc2OC(F)(F)F)c[n+]1[O-]` (single isomer, unassigned) [Example 133]: the Ki in assay [1] worked out at 0.46 nM; in assay [2], 5.08 nM.

For `COC(=O)Nc1ccc2c(c1)NC(=O)CCCC[C@H](c1ccc(-c3cc(Cl)ccc3-n3cccn3)c[n+]1[O-])c1nc-2c(C)[nH]1` (single isomer, unassigned) [Example 139], the figures for the Ki in assay [1] and in assay [2] were 0.35 nM and 22.2 nM, respectively.

With `COC(=O)Nc1ccc2c(c1)NC(=O)[C@@H](C)CCC[C@@H](c1ccc(-c3c(F)cccc3F)c[n+]1[O-])c1nc-2c(C)[nH]1` (single isomer, unassigned) [Example 143-c], the values for the Ki in assay [1] and in assay [2] were 1.4 nM and 5.92 nM, respectively.

As for `COC(=O)Nc1ccc2c(c1)NC(=O)CCCC[C@H](c1ccc(-c3c(F)cccc3C(F)(F)F)c[n+]1[O-])c1nc-2c(C)[nH]1` (single isomer, unassigned) [Example 122], the Ki amounted to 0.36 nM in assay [1] and 2.96 nM in assay [2].

As for `O=C(C1CCCCC(c2ccc(-c3cc(Cl)ccc3-n3cnnn3)c[n+]2[O-])c2cccc(c2)-c2cc(F)ccc2N1)N1CCCC1` (single isomer, unassigned) [Example 79-b, 5-(5-Chloro-2-(1H-tetrazol-1-yl)phenyl)-2-(2^5-fluoro-4-(pyrrolidine-1-carbonyl)-3-aza-1(1,3),2(1,2)-dibenzenacyclononaphane-9-yl)pyridine 1-oxide], the Ki in assay [1] is 0.24 nM; in assay [2] it was 119 nM.

Regarding `COC(=O)Nc1ccc2c(c1)NC(=O)C(C)CCCC(c1ccc(-c3c(F)ccc(Cl)c3F)c[n+]1[O-])c1cccc-2c1` (single isomer, unassigned) [Example 50-a, 5-(3-chloro-2,6-difluorophenyl)-2-(2^4-((methoxycarbonyl)amino)-5-methyl-4-oxo-3-aza-1(1,3),2(1,2)-dinenzenacyclononaphane-9-yl)pyridine 1-oxide], the Ki was 0.53 nM in assay [1] and 1.89 nM in assay [2].

`O=C1CCCC[C@H](c2ccc(-c3cc(Cl)ccc3-n3cnnn3)c[n+]2[O-])c2cccc(c2)-c2cc(F)ccc2N1` [Example 2-a, (S) 5-(5-chloro-2-(1H-tetrazol-1-yl)phenyl)-2-(2^5-fluoro-4-oxo-3-aza-1(1,3),2(1,2)-dibenzenacyclononaphane-9-yl)pyridine 1-oxide]: the Ki is 0.09 nM in assay [1] and 2.7 nM in assay [2].

Regarding `O=C1CCCCC(c2ccc(-c3cc(Cl)ccc3-n3cnnn3)c[n+]2[O-])c2cc[n+]([O-])c(c2)-c2cc(F)ccc2N1` (stereo not drawn) [Example 80, 9-(5-(5-chloro-2-(1h-tetrazol-1-yl)phenyl)-1-oxidopyridin-2-yl)-2^5-fluoro-4-oxo-3-aza-1(2,4)-pyridin-1-iuma-2(1,2)-benzenacyclononaphane 1^1-oxide], the Ki in assay [1] was 0.59 nM; in assay [2], 13.3 nM.

On to `COC(=O)Nc1ccc2c(c1)NC(=O)CCCC[C@H](c1ccc(-c3cc(Cl)ccc3C(F)(F)F)c[n+]1[O-])c1cccc-2c1` (single isomer, unassigned) [Example 32], for which the Ki in assay [1] was determined as 0.83 nM; in assay [2], 2.95 nM.

`O=C(C1CCCCC(c2ccc(-c3cc(Cl)ccc3-n3cnnn3)c[n+]2[O-])c2cccc(c2)-c2cc(F)ccc2N1)N1CCCC1` (single isomer, unassigned) [Example 79-c, 5-(5-Chloro-2-(1H-tetrazol-1-yl)phenyl)-2-(2^5-fluoro-4-(pyrrolidine-1-carbonyl)-3-aza-1(1,3),2(1,2)-dibenzenacyclononaphane-9-yl)pyridine 1-oxide]: the Ki in assay [1] was found to be 52.2 nM; in assay [2] it was 2920 nM.

Turning to `COC(=O)Nc1ccc2c(c1)NC(=O)CCCCC(c1ccc(-c3cc(Cl)ccc3-n3cnnn3)cn1)c1cc(F)cc-2c1` (stereo not drawn) [Example 51, Methyl (9-(5-(5-chloro-2-(1H-tetrazol-1-yl)phenyl)pyridin-2-yl)-1^5-fluoro-4-oxo-3-aza-1(1,3),2(1,2)-dinenzenacyclononaphane-2^4-yl)carbamate], the Ki in assay [1] turned out to be 2.76 nM; in assay [2] it was 46.6 nM.
